From US9527841B2, “Substituted pyrido[2,3-b]pyrazines as phosphodiesterase 2A inhibitors” (Takeda Pharmaceutical Company Limited, priority 2012, dated 2016) come the findings set out here.

This assay deals with T1, Human PDE2A3 enzyme (Homo sapiens, UniProt O00408).
T1 construct: transfected with the full-length gene; His-tag; made in house; host or cells: Sf9 insect cells
T1 sequence (O00408 whole entry): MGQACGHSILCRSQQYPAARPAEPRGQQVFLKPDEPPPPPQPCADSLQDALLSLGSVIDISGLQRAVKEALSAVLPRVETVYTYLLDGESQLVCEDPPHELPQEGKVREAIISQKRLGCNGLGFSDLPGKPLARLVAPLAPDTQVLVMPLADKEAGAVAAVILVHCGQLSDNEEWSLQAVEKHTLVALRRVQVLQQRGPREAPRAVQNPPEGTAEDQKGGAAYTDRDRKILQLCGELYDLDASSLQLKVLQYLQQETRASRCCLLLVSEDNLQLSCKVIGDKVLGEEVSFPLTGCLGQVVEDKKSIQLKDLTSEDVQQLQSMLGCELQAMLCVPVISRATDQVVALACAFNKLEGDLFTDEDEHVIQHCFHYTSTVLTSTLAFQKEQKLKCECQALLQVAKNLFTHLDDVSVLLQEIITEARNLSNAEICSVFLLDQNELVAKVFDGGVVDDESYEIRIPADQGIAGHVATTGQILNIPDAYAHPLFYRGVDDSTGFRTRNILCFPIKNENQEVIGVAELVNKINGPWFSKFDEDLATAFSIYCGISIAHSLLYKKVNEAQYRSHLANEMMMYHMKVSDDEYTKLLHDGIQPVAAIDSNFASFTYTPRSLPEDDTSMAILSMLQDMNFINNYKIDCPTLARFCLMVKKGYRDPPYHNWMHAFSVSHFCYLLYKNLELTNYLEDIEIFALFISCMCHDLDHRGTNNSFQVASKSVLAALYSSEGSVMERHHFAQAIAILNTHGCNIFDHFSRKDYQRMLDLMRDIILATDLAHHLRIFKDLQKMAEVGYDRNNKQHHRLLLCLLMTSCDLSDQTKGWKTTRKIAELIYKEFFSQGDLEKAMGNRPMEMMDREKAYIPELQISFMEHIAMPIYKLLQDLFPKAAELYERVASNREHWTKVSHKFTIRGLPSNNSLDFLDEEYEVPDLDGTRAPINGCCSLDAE
Kind of assay: PDE Enzyme Inhibition Assay (SPA, [3H]cGMP). The class given is biochemical. To be noted: compound 10 μM; substrate [3H]cGMP 77 nM; 60 min at room temperature; duplicate. How it is done: Human PDE2A3 enzyme was generated from Sf9 cells transfected with the full-length gene. The extracted enzyme from Sf9 cells was purified by His-tag affinity column and gel filtration. The enzyme was stored at −70° C. until use. PDE activity was measured using a SPA (Scintillation Proximity Assay) (GE Healthcare). To evaluate the inhibitory activity, 10 μl of serial diluted compounds were incubated with 20 μl of PDE enzyme in assay buffer (50 mM HEPES-NaOH, 8.3 mM MgCl2, 1.7 mM EGTA, 0.1% BSA (pH 7.4)) at room temperature for 30 min. Final concentration of DMSO in the assay was 1%. The evaluation of the compounds were performed in duplicate in 96-well half-area plates (Corning) or 384-well OptiPlate (PerkinElmer). To start the reaction, 10 μl of substrate [^3H] cGMP (77 nM, PerkinElmer) was added for a final assay volume of 40 μl. After 60 min incubation at room temperature, 20 μl of yttrium SPA beads (20 mg/ml) containing zinc sulphate was added thereto to terminate the PDE reaction. After being settled for additional 1 hr, the assay plates were counted in a scintillation counter (PerkinElmer) to allow calculation of inhibition rate. Inhibition rate was calculated on the basis of 0% control wells with enzyme and DMSO, and 100% control wells without enzyme.
The molecule `CCC(Oc1ccc(OC(F)(F)F)cc1)C(=O)N1CC(=O)Nc2cccnc21` (centres unmarked) [Example 3, optical active form of 4-(2-(4-(trifluoromethoxy)phenoxy)butanoyl)-3,4-dihydropyrido[2,3-b]pyrazin-2 (1H)-one] displayed an inhibition at 10 µM of 100%. Regarding `CCC(Oc1ccc(C(F)(F)F)cc1)C(=O)N1CC(=O)Nc2cccnc21` (centres unmarked) [Example 4, 4-(2-(4-(trifluoromethyl)phenoxy)butanoyl)-3,4-dihydropyrido[2,3-b]pyrazin-2(1H)-one], at 10 µM the inhibition was 98%.

For `CCC(Oc1ccc(OC(F)(F)F)cc1)C(=O)N1CC(=O)Nc2cc(C)cnc21` (centres unmarked) [Example 6, 7-methyl-4-(2-(4-(trifluoromethoxy)phenoxy)butanoyl)-3,4-dihydropyrido[2,3-b]pyrazin-2(1H)-one], the inhibition at 10 µM turned out to be 100%. The value for `COCCC(Oc1ccc(OC(F)(F)F)cc1)C(=O)N1CC(=O)Nc2cccnc21` (centres unmarked) [Example 18, 4-(4-methoxy-2-(4-(trifluoromethoxy)phenoxy)butanoyl)-3,4-dihydropyrido[2,3-b]pyrazin-2(1H)-one] was 99%. `CC(C)C(Oc1ccc(C(F)(F)F)cc1)C(=O)N1CC(=O)Nc2cccnc21` (centres unmarked) [Example 21, 4-(3-methyl-2-(4-(trifluoromethyl)phenoxy)butanoyl)-3,4-dihydropyrido[2,3-b]pyrazin-2(1H)-one] gave an inhibition at 10 µM of 98%. The value for `CCC(Nc1ccc(OC(F)(F)F)cc1)C(=O)N1CC(=O)Nc2cccnc21` (centres unmarked) [Example 23, 4-(2-((4-(trifluoromethoxy)phenyl)amino)butanoyl)-3,4-dihydropyrido[2,3-b]pyrazin-2(1H)-one] was 97%. The value for `O=C1CN(C(=O)[C@@H]2CCCN2c2ccc(OC(F)(F)F)cc2)c2ncccc2N1` [Example 25, 4-(1-(4-(trifluoromethoxy)phenyl)prolyl)-3,4-dihydropyrido[2,3-b]pyrazin-2(1H)-one] was 96%. The molecule `CCC(Oc1ccc(OC(F)(F)F)cc1)C(=O)N1CC(=O)Nc2ccc(C)nc21` (centres unmarked) [Example 28, optical active form of 6-methyl-4-(2-(4-(trifluoromethoxy)phenoxy)butanoyl)-3,4-dihydropyrido[2,3-b]pyrazin-2(1H)-one] had an inhibition at 10 µM of 99%. The value for `CCC(Oc1ccc(OC(F)(F)F)cc1)C(=O)N1CC(=O)Nc2c(C)ccnc21` (centres unmarked) [Example 29, optical active form of 8-methyl-4-(2-(4-(trifluoromethoxy)phenoxy)butanoyl)-3,4-dihydropyrido[2,3-b]pyrazin-2(1H)-one] was 99%; that for `CCC(Oc1ccc(C(C)C)cc1)C(=O)N1CC(=O)Nc2cccnc21` (centres unmarked) [Example 47, 4-(2-(4-isopropylphenoxy)butanoyl)-3,4-dihydropyrido[2,3-b]pyrazin-2(1H)-one] was 98%; that for `CCC(Oc1ccc(-n2cccn2)cc1)C(=O)N1CC(=O)Nc2cccnc21` (centres unmarked) [Example 55, 4-(2-(4-(1H-pyrazol-1-yl)phenoxy)butanoyl)-3,4-dihydropyrido[2,3-b]pyrazin-2(1H)-one] was 99%. In the case of `CCC(Oc1ccc(S(=O)(=O)C(F)(F)F)cc1)C(=O)N1CC(=O)Nc2cccnc21` (centres unmarked) [Example 75, 4-(2-(4-((trifluoromethyl)sulfonyl)phenoxy)butanoyl)-3,4-dihydropyrido[2,3-b]pyrazin-2(1H)-one], the inhibition at 10 µM amounted to 95%.

With `CCC(Oc1ccc(OC(F)(F)F)cc1)C(=O)N1CC(=O)Nc2ccc(-c3ccn(C)n3)nc21` (centres unmarked) [Example 132, optical active form of 6-(1-methyl-1H-pyrazol-3-yl)-4-(2-(4-(trifluoromethoxy)phenoxy)butanoyl)-3,4-dihydropyrido[2,3-b]pyrazin-2(1H)-one], the inhibition at 10 µM stood at 100%. `COc1cnc2c(c1)NC(=O)CN2C(=O)C(Oc1ccc(-n2cccn2)c(F)c1)C(C)C` (centres unmarked) [Example 135, 4-(2-(3-fluoro-4-(1H-pyrazol-1-yl)phenoxy)-3-methylbutanoyl)-7-methoxy-3,4-dihydropyrido[2,3-b]pyrazin-2(1H)-one]: at 10 µM the inhibition was 99%.
